Laboratory results reported in US8546378B2, “5HT2C receptor modulator compositions and methods of use” (Arena Pharmaceuticals, Inc., priority 2004, dated 2013).

Each molecule was assayed on Sprague-Dawley (SD) rats (assay: Food intake in rats: selective 5HT-2C agonist alone, phentermine alone, or combination (Example 59)). Details: female SD rats; perorally; 2 h food intake; FIG. 3A; two-way ANOVA, Bonferroni p<0.01.
Type: in vivo, rat
Experimental: Female (weight 225-250 g) and male (weight 250-275 g) Sprague-Dawley (SD) rats were purchased from Harlan (San Diego, Calif.) and housed 4 per cage in a temperature controlled environment under a 17 h/7 h light/dark cycle (lights out at 10:00 am). Water and Chow was available (LabDiet 8604) ad libitum for two weeks. The animals were handled for 2 occasions during this time. On the morning of the study, the animals were individually housed with no food or bedding and dosed perorally with 1 ml/kg of compound or vehicle 30 minutes prior to lights out. At lights out, the animals were given a pre-weighed amount of chow and placed near the food bowl. Two hours later the remaining chow was weighed and the study concluded.

SMILES | effect on food intake in female rats
C[C@H]1CNCCc2ccc(Cl)cc21 [Compound B, (R)-8-chloro-1-methyl-2,3,4,5-tetrahydro-1H-3-benzazepine] | No other significant differences between groups
CC(C)(N)Cc1ccccc1 [phentermine, 1,1-Dimethyl-2-phenyl-ethylamine, reference compound] | No other significant differences between groups

Same assay, conditions: male SD rats; perorally; 2 h food intake; FIG. 3B; two-way ANOVA, Bonferroni p<0.01

SMILES | effect on food intake in male rats
C[C@H]1CNCCc2ccc(Cl)cc21 [Compound B, (R)-8-chloro-1-methyl-2,3,4,5-tetrahydro-1H-3-benzazepine] | No other significant differences between groups
CC(C)(N)Cc1ccccc1 [phentermine, 1,1-Dimethyl-2-phenyl-ethylamine, reference compound] | No other significant differences between groups

What follows are molecules tested against T1, human 5-HT2C receptor (Homo sapiens, UniProt P28335) (assay: Intracellular IP3 Accumulation Assay). Details: HEK293 cells transfected with human 5-HT2C receptor; averages of at least two trials; read-out: 5-HT2C (EC50) IP Accumulation Assay.
T1 construct: expressed in transfected cells; host or cells: HEK293
T1 sequence (P28335 33-458): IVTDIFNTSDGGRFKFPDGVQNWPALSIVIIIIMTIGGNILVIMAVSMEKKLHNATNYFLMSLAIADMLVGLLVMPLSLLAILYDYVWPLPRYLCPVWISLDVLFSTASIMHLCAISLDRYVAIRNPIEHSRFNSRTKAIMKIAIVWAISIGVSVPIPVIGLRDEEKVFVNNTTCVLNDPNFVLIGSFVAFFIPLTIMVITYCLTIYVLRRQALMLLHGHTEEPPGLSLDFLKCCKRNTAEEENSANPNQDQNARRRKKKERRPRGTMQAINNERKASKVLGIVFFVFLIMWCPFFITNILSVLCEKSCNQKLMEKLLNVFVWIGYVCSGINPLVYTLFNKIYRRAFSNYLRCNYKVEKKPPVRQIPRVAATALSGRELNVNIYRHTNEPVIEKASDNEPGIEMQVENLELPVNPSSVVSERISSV
Type: cell-based
Experimental: HEK293 cells were transfected in 15 cm sterile dishes with or without (control) 16 μg of human 5-HT2C receptor cDNA using 25 μl of lipofectamine. Cells were then incubated for 3-4 hours at 37° C./5% CO2 and then transfection media was removed and replaced with 100 μl of DMEM. Cells were then plated onto 100 cm sterile dishes. The next day cells were plated into 96 well PDL microtiter plates at a density of 55K/0.2 ml. Six hours latter, media was exchanged with [^3H]inositol (0.25 μCi/well) in inositol free DMEM and plates were incubated at 37° C./5% CO2 overnight. The next day, wells were aspirated and 200 μl of DMEM containing test compound, 10 μM pargyline, and 10 mM LiCl was added to appropriate wells. Plates were then incubated at 37° C./5% CO2 for three hours followed aspiration and by addition of fresh ice cold stop solution (1M KOH, 19 mM Na-borate, 3.8 mM EDTA) to each well. Plates were kept on ice for 5-10 min and the wells were neutralized by addition of 200 μl of fresh ice cold neutralization solution (7.5% HCl). Plates were then frozen until further processing is desired. The lysate was then transferred into 1.5 ml Eppendorf tubes and 1 ml of chloroform/methanol (1:2) was added/tube. The solution was vortexed for 15 seconds and the upper phase was applied to a Biorad AG1-X8™ anion exchange resin (100-200 mesh). First, the resin was washed with water at 1:1.25 W/V and 0.9 ml of upper phase was loaded onto the column. The column was then washed with 10 ml of 5 mM myo-inositol and 10 ml of 5 mM Na-borate/60 mM Na-formate. The inositol tris phosphates were eluted into scintillation vials containing 10 ml of scintillation cocktail with 2 ml of 0.1 M formic acid/1 M ammonium formate. The columns were regenerated by washing with 10 ml of 0.1 M formic acid/3M ammonium formate and rinsed twice with dd H2O and stored at 4° C. in water.

SMILES | EC50 [nM]
COc1cc2c(cc1Br)C(C)CNCC2 (racemic) [Example 1, (R,S) 8-Bromo-7-methoxy-1-methyl-2,3,4,5-tetrahydro-1H-3-benzazepine] | 4.2
COc1cc2c(cc1Cl)C(C)CNCC2 (racemic) [Example 2, (R,S) 8-Chloro-7-methoxy-1-methyl-2,3,4,5-tetrahydro-1H-3-benzazepine] | 4.5
COc1cc2c(cc1I)C(C)CNCC2 (racemic) [Example 3, (R,S) 8-Iodo-7-methoxy-1-methyl-2,3,4,5-taetrhydro-1H-3-benzazepine] | 1.4
CC1CNCCc2cc(O)c(Br)cc21 (racemic) [Example 4, (R,S) 8-Bromo-7-hydroxy-1-methyl-2,3,4,5-tetrahydro-1H-3-benzazepine] | 2.1
C=CCOc1cc2c(cc1Br)C(C)CNCC2 (racemic) [Example 5, (R,S) 7-Allyloxy-8-bromo-1-methyl-2,3,4,5-tetrahydro-1H-3-benzazepine] | 12.1
C=CCOc1cc2c(cc1I)C(C)CNCC2 (racemic) [Example 12, (R,S) 7-Allyloxy-8-iodo-1-methyl-2,3,4,5-tetrahydro-1H-3-benzazepine] | 6.3
CCC1CNCCc2cc(OC)c(Br)cc21 (racemic) [Example 19, (R,S) 8-Bromo-1-ethyl-7-methoxy-2,3,4,5-tetrahydro-1H-3-benzazepine] | 18
CC1CNCCc2ccc(Br)cc21 (racemic) [Example 32, (R,S) 8-Bromo-1-methyl-2,3,4,5-tetrahydro-1H-3-benzazepine] | 2.1
